T1: ERRγ1 (Homo sapiens, UniProt P62508)
T1 sequence (P62508 1-435 isoform P62508-2): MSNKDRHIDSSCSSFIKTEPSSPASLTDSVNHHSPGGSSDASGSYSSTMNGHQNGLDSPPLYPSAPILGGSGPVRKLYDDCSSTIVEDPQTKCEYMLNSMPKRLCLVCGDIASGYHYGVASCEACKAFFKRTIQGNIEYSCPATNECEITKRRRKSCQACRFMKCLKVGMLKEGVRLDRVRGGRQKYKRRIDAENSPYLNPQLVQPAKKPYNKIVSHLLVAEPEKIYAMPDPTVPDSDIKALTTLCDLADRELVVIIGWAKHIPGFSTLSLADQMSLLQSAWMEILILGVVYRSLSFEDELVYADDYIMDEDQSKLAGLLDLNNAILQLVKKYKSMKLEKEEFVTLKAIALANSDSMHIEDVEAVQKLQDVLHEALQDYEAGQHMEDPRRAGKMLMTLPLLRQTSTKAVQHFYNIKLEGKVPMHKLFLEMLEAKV

T2: PPARβ (Homo sapiens, UniProt Q03181)
T2 construct: expressed in transfected cells; host or cells: CV-1 (African green monkey kidney)
T2 sequence (Q03181 1-441): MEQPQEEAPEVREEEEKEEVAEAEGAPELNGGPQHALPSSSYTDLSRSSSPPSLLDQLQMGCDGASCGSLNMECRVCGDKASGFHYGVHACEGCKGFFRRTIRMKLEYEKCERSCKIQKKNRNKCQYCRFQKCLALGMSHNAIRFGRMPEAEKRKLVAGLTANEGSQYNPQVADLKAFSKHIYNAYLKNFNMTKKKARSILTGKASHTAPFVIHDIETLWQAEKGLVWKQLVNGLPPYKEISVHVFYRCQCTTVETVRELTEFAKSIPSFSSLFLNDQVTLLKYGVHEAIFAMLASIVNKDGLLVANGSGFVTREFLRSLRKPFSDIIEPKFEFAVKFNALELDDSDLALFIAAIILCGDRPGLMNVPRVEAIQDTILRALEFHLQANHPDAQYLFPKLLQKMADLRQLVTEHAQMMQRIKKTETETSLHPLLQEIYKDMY
T2 sequence (P19793 1-462 partner): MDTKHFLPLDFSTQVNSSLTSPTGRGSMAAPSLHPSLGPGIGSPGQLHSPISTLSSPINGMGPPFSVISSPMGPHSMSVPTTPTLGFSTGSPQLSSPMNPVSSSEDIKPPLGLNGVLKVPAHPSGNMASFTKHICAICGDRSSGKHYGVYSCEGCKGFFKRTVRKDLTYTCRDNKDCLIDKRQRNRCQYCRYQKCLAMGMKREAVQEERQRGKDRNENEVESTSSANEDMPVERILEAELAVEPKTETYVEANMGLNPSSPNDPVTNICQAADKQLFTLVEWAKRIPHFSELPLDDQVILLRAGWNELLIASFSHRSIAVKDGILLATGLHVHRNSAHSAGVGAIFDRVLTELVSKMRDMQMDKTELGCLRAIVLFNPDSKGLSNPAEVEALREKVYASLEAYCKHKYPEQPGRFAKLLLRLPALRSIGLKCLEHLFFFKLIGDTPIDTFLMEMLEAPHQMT

B1: ERRγ3: novel ERRγ isoform, nuclear receptor protein of 396 amino acids (SEQ ID NO: 2) lacking part of the DNA binding domain (protein, listed as Homo sapiens)
chain: MSNKDRHIDSSCSSFIKTEPSSPASLTDSVNHHSPGGSSDASGSYSSTMNGHQNGLDSPPLYPSAPILGGSGPVRKLYDDCSSTIVEDPQTKCEYMLNSMPKRLCLVCGDIASGYHYGVASCEACKAFFKRTIQGVRLDRVRGGRQKYKRRIDAENSPYLNPQLAQPAKKPYNKIVSHLLVAEPEKIYAMPDPTVPDSDIKALTTLCDLADRELVVIIGWAKHIPGFSTLSLADQMSLLQSAWMEILILGVVYRSLSFEDELVYADDYIMDEDQSKLAGLLDLNNAILQLVKKYKSMKLEKEEFVTLKAIALANSDSMHIEDVEAVQKLQDVLHEALQDYEAGQHMEDPRRAGKMLMTLPLLRQTSTKAVQHFYNIKLEGKVPMHKLFLEMLEAKV

How the values were obtained:
ERRγ1 = target: T1, ERRγ1; conditions: stated as known property; cited from earlier work
PPARβ = target: T2, PPARβ; assay: Reporter gene assay, ERRγ3 coexisted with PPARβ, pGVP2-PPRE1 in CV-1 cells; format: cell-based; conditions: 10^−5 M carbacyclin, FIG. 24
Experimental: Transfection was performed as follows: CV-1 cells were resuspended in DMEM supplemented with 10% fetal bovine serum, 2000 U/l of penicillin G, and 100 mg/l of streptomycin to a concentration of 2×10^5 cells/2.5 ml. This was then seeded to a 6-well plate at 2.5 ml per well, and incubated for 18-24 hours in a CO2 incubator at 37° C. and 5% CO2. 1 μg of each of the expression plasmids for the transcription factors, the luciferase reporter plasmid, and another luciferase reporter plasmid used for normalization of the measured values (pRL-TK), were dissolved in Opti-MEM (Gibco BRL), to a total of 150 μl. […] Luciferase activity was measured using the Dual-Luciferase™ Reporter Assay System (Promega). […] The protocol for measurement was as follows: 50 μl of Luciferase Assay Reagent II was added to each well, stirred for 0.3 seconds, and measured for one second. 50 μl of Stop&Glo™ Reagent was then added, stirred for 0.3 seconds, and measured for one second. The measured values for firefly luciferase activity were corrected by dividing by the value for the Renilla luciferase activity, the internal control. Average values and standard errors were calculated from triplicate samples.
The effect of ligands on the function of ERRγ3 in enhancing the transcriptional activation function of peroxisome proliferator activated receptor (PPAR) α, β, or γ was evaluated using the reporter gene assay (FIG. 24). […]

Molecule	inhibition of the transcriptional activation function of ERRγ1 (ERRγ1)	modifying effect on the transcriptional stimulation activity of PPARβ (PPARβ)
4-hydroxytamoxifen [reference compound]	inhibiting their transcriptional activation function	
B1		did not show any significant modifying effect
